The nature of this series: in vitro. The settings on record: human, liver microsomes. For orientation: Microsomes from liver hold many membrane-bound enzymes, among them those of drug oxidation.

Each structure is given as a SMILES string.

Regarding `CNC(=O)c1cc(Oc2ccc(NC(=O)Nc3ccc(Cl)c(C(F)(F)F)c3)cc2)ccn1` [SORAFENIB], the half-life at 0.5 µM is 5.6 h.

A word on the half-life: it is the time needed for the level to fall by half in the phase considered.

The values above are taken from ChEMBL document CHEMBL4049397, “Design, synthesis and evaluation of derivatives based on pyrimidine scaffold as potent Pan-Raf inhibitors to overcome resistance” (Eur J Med Chem, 2017).
